In brackets after ≈: the same amount, converted by molar mass. Where a SMILES comes first, the peptide text is derived from it. Bridges are numbered along the chain shown (N, C = ends). [ ]: non-standard residue; d: D form. The star is where a group is joined. Tetradecanoyl(3R-OH) = CCCCCCCCCCC[C@@H](O)CC(=O)*; Asp(3S-OH) = N[C@H](C(=O)O)[C@H](O)C(=O)O; Thr(4-Cl) = N[C@H](C(=O)O)[C@H](O)CCl; aThr = C[C@H](O)[C@H](N)C(=O)O; dDab = NCC[C@@H](N)C(=O)O; Dab = NCC[C@H](N)C(=O)O; Dhb = C/C=C(\N)C(=O)O
Columns and labels:
[1] = tested on: Aspergillus fumigatus; assay: In vitro minimum inhibitory concentration against Aspergillus fumigatus; assay type: functional
[2] = tested on: Cryptococcus neoformans; assay: In vitro minimum inhibitory concentration against Cryptococcus neoformans; assay type: functional
[3] = tested on: Mus musculus; assay: Compound (at 20 mg/kg) was tested to induce tail vein irritation in mice; Negative; assay type: ADME, organism-based; set-up: dose 20 mg/kg; conditions: in vivo
[4] = tested on: Candida albicans; assay: In vitro minimum inhibitory concentration against Candida albicans; assay type: functional
[5] = tested on: Mus musculus; assay: Compound (at 20 mg/kg) was tested to induce tail vein irritation in mice; Positive; assay type: ADME, organism-based; set-up: dose 20 mg/kg; conditions: in vivo

SMILES | MIC [1] | MIC [2] | Tail vein toxicity [3] | MIC [4] | Tail vein toxicity [5]
C/C=C1\NC(=O)[C@H]([C@H](C)O)NC(=O)[C@H](CCN)NC(=O)[C@H](CCCCN)NC(=O)[C@H]2CC(=O)O[C@H](C(=O)O)[C@H](NC1=O)C(=O)N[C@@H]([C@H](O)CCl)C(=O)OC[C@H](NC(=O)C[C@H](O)CCCCCCCCCCC)C(=O)N[C@H](CCN)C(=O)N2 | > 20 µg/mL | 0.625 µg/mL (≈ 0.525 µM) | Negative | 5 µg/mL (≈ 4.2 µM) | –
C/C=C1\NC(=O)[C@H]([C@H](C)O)NC(=O)[C@H](CCN)NC(=O)[C@H](CCCCN)NC(=O)[C@H](CC(=O)O)NC(=O)[C@@H](CCN)NC(=O)[C@@H](NC(=O)C[C@H](O)CCCCCCCCCCC)COC(=O)[C@H]([C@H](O)CCl)NC(=O)[C@H]([C@H](O)C(=O)O)NC1=O [PSEUDOMYCIN B] ({Tetradecanoyl(3R-OH)}-S[dDab]DK[Dab][aThr][Dhb][Asp(3S-OH)][Thr(4-Cl)]; ester 1-C) | 20 µg/mL (≈ 16.6 µM) | < 0.01 µg/mL | – | 0.312 µg/mL (≈ 0.258 µM) | POSITIVE
C/C=C1\NC(=O)[C@H]([C@H](C)O)NC(=O)[C@H](CCN)NC(=O)[C@H](CCCCN)N2C(=O)C[C@H](NC(=O)[C@@H](CCN)NC(=O)[C@@H](NC(=O)C[C@H](O)CCCCCCCCCCC)COC(=O)/C(=C\CO)NC(=O)[C@H]([C@H](O)C(=O)O)NC1=O)C2=O | > 20 µg/mL | 20 µg/mL (≈ 17.3 µM) | – | > 20 µg/mL | –
C/C=C1\NC(=O)[C@H]([C@@H](C)O)NC(=O)[C@@H](CCN)NC(=O)[C@H](CCCCN)N2C(=O)C[C@@H](NC(=O)[C@H](CCN)NC(=O)C(NC(=O)C[C@@H](O)CCCCCCCCCCC)COC(=O)[C@@H]([C@@H](O)CCl)NC(=O)[C@H]([C@H](O)C(=O)O)NC1=O)C2=O (stereo not given in full) | > 20 µg/mL | 10 µg/mL (≈ 8.41 µM) | Negative | > 20 µg/mL | –

— ChEMBL document CHEMBL1133335, “Serendipitous synthesis of novel dehydro- and dechloro-pseudomycin B (PSB) derivatives” (Bioorg Med Chem Lett, 2000)
